“Also recorded” adds a separate entry of the source.
Target: T1, PERK (Mus musculus, UniProt Q9Z2B5)
T1 construct: from tissue; host or cells: mouse brain (C57BL/6 wild type; whole brain homogenates / frontal cortex)
T1 sequence (Q9Z2B5 29-1114): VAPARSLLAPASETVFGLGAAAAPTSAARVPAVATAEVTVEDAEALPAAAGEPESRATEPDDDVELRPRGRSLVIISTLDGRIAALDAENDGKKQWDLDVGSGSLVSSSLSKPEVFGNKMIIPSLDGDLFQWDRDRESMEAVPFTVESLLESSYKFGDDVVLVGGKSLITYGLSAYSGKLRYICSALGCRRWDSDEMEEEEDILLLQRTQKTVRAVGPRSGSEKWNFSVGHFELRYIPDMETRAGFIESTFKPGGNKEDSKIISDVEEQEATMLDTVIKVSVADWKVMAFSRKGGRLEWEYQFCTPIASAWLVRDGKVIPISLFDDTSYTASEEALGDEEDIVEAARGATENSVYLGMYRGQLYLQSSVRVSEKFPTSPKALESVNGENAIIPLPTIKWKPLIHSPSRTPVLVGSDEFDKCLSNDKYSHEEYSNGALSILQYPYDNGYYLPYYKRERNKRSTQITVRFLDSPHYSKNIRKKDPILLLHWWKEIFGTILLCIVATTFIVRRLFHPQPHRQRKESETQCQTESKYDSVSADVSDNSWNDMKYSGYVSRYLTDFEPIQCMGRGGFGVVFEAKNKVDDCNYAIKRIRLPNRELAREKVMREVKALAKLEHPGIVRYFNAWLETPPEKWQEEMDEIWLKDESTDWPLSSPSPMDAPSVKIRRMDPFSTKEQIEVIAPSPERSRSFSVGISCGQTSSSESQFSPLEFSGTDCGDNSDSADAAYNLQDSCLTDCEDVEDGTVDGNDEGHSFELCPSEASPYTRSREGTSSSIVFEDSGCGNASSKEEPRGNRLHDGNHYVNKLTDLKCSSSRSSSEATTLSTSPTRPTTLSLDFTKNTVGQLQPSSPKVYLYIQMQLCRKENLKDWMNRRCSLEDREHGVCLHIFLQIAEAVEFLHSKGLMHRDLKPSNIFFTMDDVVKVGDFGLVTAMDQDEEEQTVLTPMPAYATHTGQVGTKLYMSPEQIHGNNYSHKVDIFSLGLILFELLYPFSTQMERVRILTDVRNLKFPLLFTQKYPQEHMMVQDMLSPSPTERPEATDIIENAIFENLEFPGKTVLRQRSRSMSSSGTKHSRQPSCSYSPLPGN
Experiment: Target engagement: Western blots of whole brain homogenates after intraperitoneal administration
Format: in vivo
Method: All animal work was conducted either on CR57BL/6 mice, obtained from Charles River Laboratories, Wilmington, Mass., USA, or on homozygous transgenic mice overexpressing human tau with the P301S mutation on a C57BL/6 background, originally developed by Michel Goedert (Xu et al. 2014), obtained by own breeding. Animals were kept at 23±1° C. under standard 12 h light-dark cycle with free access to food and water. They were handled according to the EU Council Directive 2010/63/EU, the Guide for the Care and Use of Laboratory Animals (National Research Council 2011) and the guidelines of the local institutional committee. The experiments were authorized by the local authority “Regierung von Oberbayern” under application number 55.2-1-54-2532-165-13.
5 mg of the PA compound CCT020312 (EMD Millipore, Billerica, Mass., USA) was first dissolved in 100 μl sterile DMSO (AppliChem, Darmstadt, Germany) and then diluted in sterile saline (B. Braun Medical, Melsungen, Germany) to achieve a stock solution of […].
For the initial short-term single-dose target-engagement trial, wild type mice were treated on three consecutive days with either 2 mg/kg of CCT020312 or saline of the equivalent volume by intraperitoneal injection. They were sacrificed by cervical dislocation four hours after the last injection.
For the short-term ascending-dose target-engagement trial, wild type mice at 15 weeks of age were treated on three consecutive days with once daily intraperitoneal (i.p.) injections of either 1, 2, or 5 mg/kg of CCT020312 or equivalent volumes of saline.
For the long-term single-dose target-engagement trial, wild type mice (n=3) at 9 weeks of age were treated for 6 weeks with once daily i.p. injections of either 2 mg/kg of CCT020312 or equivalent volumes of saline.
Mice were sacrificed by cervical dislocation twelve hours after the last injection. Their brains were frozen on dry ice and stored at −80° C. for Western blot analysis.
Frontal cortex tissue was dissected from the fresh-frozen sample on dry ice and suspended in 750 μl of T-PER Tissue Protein Extraction Reagent (Thermo Fisher Scientific) and 1× cOmplete Protease Inhibitor Cocktail Tablets (Hoffmann-La Roche) and 1× PhosSTOP Phosphatase Inhibitor Cocktail Tablets (Hoffmann-La Roche). The tissue piece was initially ground with a pestle inside a microcentrifuge tube on ice and then homogenized by sonification with Branson Sonifier 450 Analog (Branson, now Thermo Fisher Scientific) with 10×500 ms bursts at intensity level 3 on ice. The solution was then centrifuged at 5000 g for 15 minutes at 4° C. and the supernatant retrieved. Protein concentrations were determined using the BCA kit (Thermo Fisher Scientific) by heating the samples at 60° C. for 30 minutes and measuring the absorption on the NanoDrop 2000c spectrophotometer (Thermo Fisher Scientific).
20 μg of protein (200 μg for pPERK blots) were adjusted to equal concentrations between samples by dilution with M-PER and subsequently heated at 95° C. for 5 minutes with Roti®-Load 1 (Carl Roth). SDS-PAGE was performed using Any kD™ Mini-PROTEAN® TGX™ Gels (BioRad, Berkeley, Calif., USA) in a tris-glycine running buffer. The protein was blotted onto PVDF membrane (BioRad) at 70 V for 65 minutes whilst being cooled with ice. The membrane was blocked with 1× Roti®-Block solution (Carl Roth) for 1 h and then incubated at 4° C. overnight under gentle shaking with the primary antibody (see Table 6) in TBS with 5% BSA (Cell Signaling Technology) and 0.05% TWEEN (Sigma-Aldrich). The membranes were then washed and incubated with the species specific HRP-bound secondary antibody (Vector Laboratories, Burlingame, Calif., USA) at 1:2500 in 1× Roti®-Block solution for 2 h, followed by further washing and exposure to Clarity Western ECL Substrate (BioRad) or, in the case of MC1, to Amersham™ ECL™ Prime (GE Healthcare). […]

[1] = wild type mice, 2 mg/kg i.p. once daily for 6 weeks, 2 mg/kg
[2] = wild type mice, 1, 2 or 5 mg/kg i.p. once daily, three days

**Q.** What does the source list for `CCN(CC)CCC(=O)N1N=C(c2c(-c3ccccc3)c3cc(Br)ccc3[nH]c2=O)CC1c1ccc(Br)cc1` (stereo not drawn) [CCT020312, 6-bromo-3-[5-(4-bromo-phenyl)-1-(3-diethylamino-propionyl)-4,5-dihydro-1H-pyrazol-3-yl]-4-phenyl-1H-quinolin-2-one]?
**A.** brain penetration (mice, intraperitoneal, inferred from brain pEIF2A): enters the brain; pPERK in the brain (wild type mice, 2 mg/kg i.p. once daily for 6 weeks, vs saline, 2 mg/kg): increase; also recorded: significantly increased; pNRF2 level in the brain [1]: significant increase; also recorded: significantly increased; total NRF2 levels in the brain [1]: without significant change; also recorded: no significant upregulation; total PERK level in the brain [1]: no obvious change; also recorded: no significant upregulation; pEIF2A in whole brain extracts (wild type mice, 2 mg/kg i.p. once daily, three days, vs saline): marked increase; pNRF2 level in brain [2]: dose-dependent increase; total NRF2 in brain [2]: without significant change; phosphorylated PERK in whole brain extracts (wild type mice, 1, 2 or 5 mg/kg i.p. once daily, three days, vs saline): marked increase; also recorded: significantly increased
